From patent US20030203963A1, “Antimicrobial agent” (priority 2001, published 2003)

How the values were obtained:
B. cereus 204 = assay: Chicken soup trial at 20° C.; assay type: cell-based, Bacillus cereus; conditions: chicken soup at 20° C., TCSM010430, APP20010213
From the text: (§1) A local supermarket brand of cream of chicken soup was used as a model food system. 600 g packs were purchased from the local supermarket. This was a ‘fresh home-made type’ of soup that was stored in the chill cabinet, with a short shelf life. It was chosen because it is a rich, nutritious food system containing a range of food components including meat, dairy and vegetable.
(§2) Ingredients were labelled as: chicken stock (water, duck fat, chicken, salt, flavourings, yeast extracts, pork gelatine, glucose syrup, vegetable concentrate, milk protein, sugar, malto-dextrin, vegetable oil, citric acid, lactose, chicken fat), ilk, chicken (9%), cream (8%), onion, potato, vegetable oil, modified maize starch, wheat flour, lemon juice, salt, white pepper. pH 5.912. Protein: 3.3%; carbohydrate: 4.7%; fat: 7.2%; fibre: 0.2%; sodium: 0.1%
(§3) For the test the soup was mixed 2:1 in water (to facilitate sampling and mixing) and sterilised by autoclaving at 121° C. for 15 minutes. For each experiment the pH of the soup was recorded; this was between pH 5.79-5.88.
For TCS010430/20 (incubated at 20° C.) samples were prepared in 18.8 g quantities, to which 1 g of a suitable filter-sterilised APP stock solution was added and an appropriately diluted 0.2 ml inoculum. Great care was again taken to ensure homogeneous distribution of the APP and micro-organisms. This test was sampled by viable count test on a daily basis.

Lactobacillus sake A10 = assay: Well diffusion test; assay type: cell-based; conditions: 20 μl of 49.3 mg/ml (4.9%) APP sample E002012
Method: (§4) Seeded 10 ml agar plates of various test organisms were prepared, with inoculation of either 20 μl spore suspension or overnight broth. This gave an inoculum level of ca. 10^5-10^6 cfu/ml. After the plates had set, small wells were cut, and 20 μl of APP sample was loaded. Plates were incubated overnight at appropriate temperature and examined after 1-2 days (after which microbial growth is clearly visible) for zones of inhibition.

[1] = system: Saccharomyces carlsbergensis CRA6413; assay: Well diffusion test; assay type: cell-based; conditions: 20 μl of 49.3 mg/ml (4.9%) APP sample E002012
Method: as §4

[2] = system: Saccharomyces cerevisiae ATCC 9763; assay: Well diffusion test; assay type: cell-based; conditions: 20 μl of 49.3 mg/ml (4.9%) APP sample E002012
Method: as §4

[3] = system: Listeria monocytogenes S23; assay: Well diffusion test; assay type: cell-based; conditions: 20 μl of 49.3 mg/ml (4.9%) APP sample E002012
Method: as §4

Micrococcus luteus = assay: Well diffusion test; assay type: cell-based; conditions: 20 μl of 49.3 mg/ml (4.9%) APP sample E002012
Method: as §4

[4] = system: Brochothrix thermosphacta CRA7883; assay: Well diffusion test; assay type: cell-based; conditions: 20 μl of 49.3 mg/ml (4.9%) APP sample E002012
Method: as §4

[5] = system: Clostridium sporogenes Campden; assay: Well diffusion test; assay type: cell-based; conditions: 20 μl of 49.3 mg/ml (4.9%) APP sample E002012
Method: as §4

Bacillus cereus 204 = assay: Well diffusion test; assay type: cell-based; conditions: 20 μl of 49.3 mg/ml (4.9%) APP sample E002012
Method: as §4

[6] = system: Pseudomonas fluorescens 327; assay: Well diffusion test; assay type: cell-based; conditions: 20 μl of 49.3 mg/ml (4.9%) APP sample E002012
Method: as §4

TAVC = assay: Uninoculated test in raw meat; assay type: cell-based; conditions: 2000 ppm APP; for Viable counts: raw meat at 8° C.
Method: […] of raw minced beef was purchased from the local butcher. 10 g of either a 2% (20,000 ppm) stock solution of APP2001213 or water was added, and the meat mixed thoroughly. Initial counts were carried out, and then the meat was incubated at 8° C. and sampled for 3 consecutive days. The pH of the raw meat was 5.3.

Y. enterocolitica S16 = assay: Bioscreen growth inhibition test; assay type: cell-based, Yersinia enterocolitica; conditions: BS010510, 24 h/30, APP20010213
Method: (§5) For broth cultures and Bioscreen testing most bacteria were grown in Brain Heart Infusion (BHI, Oxoid, pH 7.4). Lactobacillus sake A10 was grown in de Man, Rogosa, Sharpe medium ([…], Oxoid). Yeasts were grown in Sabouraud Liquid medium (SLM, Oxoid). Most bacteria were cultured at 30° C. Lactic acid bacteria were grown on solid medium in enriched CO2 atmosphere. Clostridium species were grown in Reinforced Clostridial Medium (RCM) at 37° C. anaerobically. Brochothrix thermosphacta fungi and yeasts were grown at 25° C. Fungi were cultured on Malt Extract Agar (MEA, Oxoid).
(§6) An automated Microbiology Reader Bioscreen C was used to measure growth curves of the strains in the presence and absence of APP. The Bioscreen C measures the development of turbidity (i.e. growth) kinetically by vertical photometry in 200 wells of a honeycomb microtitre plate, simultaneously. The system consists of a Bioscreen C analyser, which is an incubator and measurement unit, integrated with a PC, software (BioLink v 5.30), printer and a ‘Honeycomb 2’ cuvette multiwell plate. Growth curve data can be analysed within the BioLink software or exported to programs such as Excel.
(§7) Broth culture media were dispensed in 270 μl volumes into the wells as directed. […] (depending on the micro-organism under investigation) with readings taken every 20 minutes after the trays were shaken. […]

Ps. fluorescens = assay: Lab media at optimum temperature (summary); assay type: cell-based, Pseudomonas fluorescens
Method: as §5, §6, §7

L. monocytogenes 272 = assay: Chicken soup trial at 20° C.; assay type: cell-based, Listeria monocytogenes; conditions: chicken soup at 20° C., TCSM010430, APP20010213
From the text: as §1, §2, §3
For TCS010430/20 (incubated at 20° C.) samples were prepared in 18.8 g quantities, to which 1 g of a suitable filter-sterilised APP stock solution was added and an appropriately diluted 0.2 ml inoculum. Great care was again taken to ensure homogeneous distribution of the APP and micro-organisms. […]

Lb. sake A10 = assay: Test in cooked minced beef slurry; assay type: cell-based, Lactobacillus sake
Method: 1 kg of minced beef, purchased from the local butcher, was mixed with 1 litre of BHI. 200 g portion of this meat slurry was autoclaved. When the meat had cooled, the pH was recorded (pH 6.24), and each pot was inoculated with 2.0 ml of 10^5 spores or cells and the meat re-mixed thoroughly. Each inoculated 200 g pot was distributed as 3×50 g portions. To each pot 1 ml of SDW, 5% or 10% APP (Batch No. APP20010215) was added, and the meat was again mixed thoroughly. An initial viable count was performed, the meat was incubated at 8° C. and sampled twice weekly. The pH of the cooked minced beef slurry was 6.24.

O=C1CC(CO)OC=C1O (centres unmarked) [APP, Ascopyrone P]
Effect on growth (B. cereus 204; 500 ppm): No significant effect with 500 ppm | Effect on growth (B. cereus 204; 1000 ppm): Extension of lag with 1000 ppm | Total inhibition for (B. cereus 204; 2000 ppm): Total inhibition by 2000 ppm for >42 days. | Sensitivity in well diffusion (zones of inhibition) (Lactobacillus sake A10): sensitive | Sensitivity in well diffusion (zones of inhibition) [1]: sensitive | Sensitivity in well diffusion (zones of inhibition) [2]: sensitive | Sensitivity in well diffusion (zones of inhibition) [3]: sensitive | Sensitivity in well diffusion (zones of inhibition) (Micrococcus luteus): sensitive | Sensitivity in well diffusion (zones of inhibition) [4]: sensitive | Sensitivity in well diffusion (zones of inhibition) [5]: sensitive | Sensitivity in well diffusion (zones of inhibition) (Bacillus cereus 204): sensitive | Sensitivity in well diffusion (zones of inhibition) [6]: sensitive | Viable counts (TAVC; day 0, TRM010521): 9.3 × 10^6 cfu/g | Viable counts (TAVC; day 1, TRM010521): 2.2 × 10^8 cfu/g | Viable counts (TAVC; day 2, TRM010521): 1.5 × 10^8 cfu/g | Viable counts (TAVC; day 3, TRM010521): 5.0 × 10^8 cfu/g | Counts in control and APP samples (TAVC; uninoculated raw meat at 8° C., pH 5.3): identical | APP level causing total inhibition (Y. enterocolitica S16): 2000 ppm | Total inhibition (effect on growth of target organism by 2000 ppm APP) (Ps. fluorescens): Ps. fluorescens | Effect on growth (L. monocytogenes 272; 1000 ppm): No significant effect by 1000 ppm | Effect on growth (L. monocytogenes 272; 2000 ppm): No total inhibition but reduction of growth rate only by 2000 | Effect on growth (Lb. sake A10; 2000 ppm, minced beef slurry at 8° C., pH 6.24, TCM010619): No effect with 2000 ppm | No inhibition (effect on growth of target organism by 2000 ppm APP) (Lb. sake A10; Cooked minced beef slurry at 8° C. pH 6.24): Lb. sake
